These results are taken from ChEMBL document CHEMBL1157318, “Caryophyllene sesquiterpenoids from a fungicolous isolate of Pestalotiopsis disseminata” (2006).

The test system of experiment [1] is Bacillus subtilis. Nature of the experiment: Antimicrobial activity against Bacillus subtilis ATCC 6051 at 100 ug/disk by agar disk diffusion method. The experiment is classed as functional. As to conditions: for zone of inhibition at 100 µg/disc: read-out: IZ. In general terms: Agar diffusion results depend on both activity and mobility in agar.
Experiment [2] relates to Staphylococcus aureus. Nature of the experiment: Antimicrobial activity against Staphylococcus aureus ATCC 29213 at 100 ug/disk by agar disk diffusion method. The experiment is classed as functional. The note with it: for zone of inhibition at 100 µg/disc: read-out: IZ.
Experiment [3] relates to Fusarium verticillioides. Nature of the experiment: Antimicrobial activity against Fusarium verticillioides NRRL 25457 at 200 ug/disk by agar disk diffusion method. The experiment is classed as functional, organism-based.
Experiment [4] has as its system Escherichia coli. Nature of the experiment: Antimicrobial activity against sEscherichia coli ATCC 25922 at 100 ug/disk by agar disk diffusion method. The experiment is classed as functional, organism-based.
For experiment [5], the system named is Aspergillus flavus. Nature of the experiment: Antimicrobial activity against sAspergillus flavus NRRL 6541 at 200 ug/disk by agar disk diffusion method. In kind it is functional, organism-based.
The test system of experiment [6] is Candida albicans. Nature of the experiment: Antimicrobial activity against Candida albicans ATCC 14053 at 100 ug/disk by agar disk diffusion method. The experiment is classed as functional, organism-based.

The source made the active and inactive calls. The rule behind the calls is not given here.

Regarding `CC1(C)C[C@@H]2/C(CO)=C\C=C/[C@@](C)(O)C[C@H](O)[C@]21O` [6-HYDROXYPUNCTAPORONIN B], the zone of inhibition at 100 µg/disc in experiment [1] amounted to 12 mm; in experiment [2], 8 mm. In addition, the result in experiment [3], in experiment [4], in experiment [5] and in experiment [6] was inactive.
On to `CC1(C)C[C@H]2[C@@]1(O)[C@@H](O)C[C@]1(C)[C@H](O)C=C[C@]21CO`, for which the result in experiment [1], in experiment [2], in experiment [3], in experiment [4], in experiment [5] and in experiment [6] was inactive.
Regarding `CC1(C)C[C@H]2[C@@]1(O)[C@@H](O)C[C@]1(C)C=C[C@@H](O)[C@]21CO`, the figures for the zone of inhibition at 100 µg/disc in experiment [1] and in experiment [2] were 12 mm and 8 mm, respectively. Also, the outcome in experiment [3], in experiment [4], in experiment [5] and in experiment [6] was inactive.
